{"source": "patent US11957727B2", "about": "“Prevention of neuroinflammation associated memory loss using nutraceutical compositions” (priority 2020, dated 2024)", "origin": "cited, not measured here", "key": {"[1]": {"system": "Nrf2 (+/+) primary peritoneal macrophages"}, "nitric oxide": {"system": "nitric oxide", "conditions": "lipopolysaccharide-induced"}, "[2]": {"system": "sepsis induction with live Escherichia coli / endotoxin (LPS 0111:B4)", "conditions": "for concentration of IL-la: controls 1187.0±278.64 pg/ml"}, "[3]": {"system": "myocardial ischemia and reperfusion", "conditions": "10 mg/kg intravenously then 10 mg/kg/h infusion, rats"}, "ulcerative colitis (UC)": {"system": "ulcerative colitis (UC)", "conditions": "50 and 100 mg/kg/day"}, "[4]": {"conditions": "animal studies"}, "[5]": {"system": "human umbilical vein VECs (HUVECs)"}, "[6]": {"system": "endothelium of atherosclerotic plaque", "conditions": "PT injection, apoE(−/−) mice"}, "[7]": {"conditions": "50 mg/kg, LPS 5 mg/kg 3 days later"}}, "note": "Where two headings read alike, the source gives them in different places."}
{"compound": "C[S+]([O-])CCCCN=C=S", "note": "(stereo not shown) [sulforaphane, 1-isothiocyanato-4-(methylsulfinyl)-butane]", "values": [{"measurement": "HO-1 expression", "setting": "[1]; LPS-stimulated Nrf2 (+/+) macrophages", "result": "significantly augmented"}, {"measurement": "LPS-stimulated mRNA expression, protein expression and production of TNF-alpha, IL-1beta, COX-2 and iNOS", "setting": "[1]; pretreatment, Nrf2 (+/+) macrophages", "result": "potently inhibited"}, {"measurement": "lactate dehydrogenase (LDH) activity", "setting": "LPS-induced ARDS; [7]", "result": "significantly decreased"}, {"measurement": "wet-to-dry ratio of the lungs", "setting": "LPS-induced ARDS; [7]", "result": "significantly decreased"}, {"measurement": "serum levels of interleukin-6 (IL-6) and tumor necrosis factor-α (TNF-α)", "setting": "LPS-induced ARDS; 50 mg/kg, LPS 5 mg/kg 3 days later, ELISA", "result": "significantly decreased"}, {"measurement": "prostaglandin E2 (PGE2) production", "setting": "LPS-induced ARDS; mice with LPS-induced ALI", "result": "significantly inhibited"}]}
{"compound": "CC1=CC(=O)C(C(C)C)=CC1=O", "note": "[thymoquinone]", "values": [{"measurement": "concentration of nitric oxide", "setting": "nitric oxide", "result": "reduced significantly"}, {"measurement": "concentration of IL-la", "setting": "[2]; 0.75 mg/kg thymoquinone dose", "result": "310.8 ± 70.93", "unit": "pg/mL"}, {"measurement": "IL-10 levels", "setting": "[2]; 0.75 mg/kg thymoquinone, controls 5505.2±333.96 pg/ml", "result": "2885.0 ± 553.98", "unit": "pg/mL"}, {"measurement": "concentration of IL-la", "setting": "[2]; 1 mg/kg group", "result": "428.3 ± 71.32", "unit": "pg/mL"}, {"measurement": "levels of TNF-α and IL-2", "setting": "[2]; P values=0.1817 and 0.0851", "result": "relatively lower levels"}, {"measurement": "reduction of mortality", "setting": "[2]; mice, thymoquinone before LPS or live E. coli challenge", "result": "80-90%"}]}
{"compound": "Epigallocatechin-3-gallate [EGCG]", "values": [{"measurement": "myocardial damage and myeloperoxidase activity", "setting": "[3]", "result": "reduced"}, {"measurement": "plasma IL-6 and creatine phosphokinase levels", "setting": "[3]", "result": "decreased"}, {"measurement": "release of IL-6 and IL-17", "setting": "ulcerative colitis (UC)", "result": "reduce"}]}
{"compound": "trans-3,5-dimethoxy-4-hydroxystilbene [pterostilbene]", "values": [{"measurement": "bioavailability", "setting": "[4]", "result": 80, "unit": "%"}, {"measurement": "protection against oxLDL-induced cell shrinkage, chromatin condensation, nuclear fragmentation and apoptosis", "setting": "[5]; HUVECs, oxLDL 200 μg/ml", "result": "protected against such injuries"}, {"measurement": "expression of lectin-like oxLDL receptor-1 (LOX-1)", "setting": "[5]; in vitro and in vivo", "result": "inhibited"}, {"measurement": "number of TUNEL-positive cells", "setting": "[6]", "result": "strongly decreased"}]}
